# Experimental data reported in the supplement of paper PMC10307832.
# Assays:
# Assay in all cases: relative viability (nuclei count vs DMSO), 5 days (fraction); higher = more cells survive
# [1] = system: EKVX
# Outline: (§1)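 One day after seeding in 1536-well plates, lung cancer cell lines were dosed by pin tool. Dosing was either single-drug or a fixed anchor-drug dose plus five library-drug doses (not always all listed) in √10 steps. After 5 days, nuclei were stained in one fix-and-stain step and counted on 4× images, and relative viability is the nuclei count of treated wells over that of vehicle wells, given as the median of duplicate plates.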
# [2] = system: NCI-H2342
# Outline: as §1
# [3] = system: HCC-44
# Outline: as §1
# [4] = system: NCI-H1975
# Outline: as §1
# [5] = system: LCLC-97TM1
# Outline: as §1
# [6] = system: NCI-H650
# Outline: as §1
# [7] = system: COR-L 105
# Outline: as §1
# [8] = system: PC-3 [JPC-3]
# Outline: as §1
# [9] = system: SW 1573
# Outline: as §1
# [10] = system: NCI-H1666
# Outline: as §1
# [11] = system: NCI-H2085
# Outline: as §1
smiles,measurement,setting,value
CC(=O)O[C@@]12CO[C@@H]1C[C@H](O)[C@@]1(C)C(=O)[C@H](O)C3=C(C)[C@@H](OC(=O)[C@H](O)[C@@H](NC(=O)OC(C)(C)C)c4ccccc4)C[C@@](O)([C@@H](OC(=O)c4ccccc4)[C@H]21)C3(C)C [Docetaxel] + Cc1cc(Nc2cc(N3CCN(C)CC3)nc(Sc3ccc(NC(=O)C4CC4)cc3)n2)n[nH]1 [Tozasertib] (partner 0.1 µM),relative viability,[1]; first compound 0.000632 µM,0.409
same,relative viability,[1]; first compound 0.002 µM,0.224
same,relative viability,[1]; first compound 0.006325 µM,0.212
same,relative viability,[1]; first compound 0.02 µM,0.149
same,relative viability,[2]; first compound 0.0002 µM,0.584
same,relative viability,[2]; first compound 0.000632 µM,0.539
same,relative viability,[2]; first compound 0.002 µM,0.543
same,relative viability,[2]; first compound 0.006325 µM,0.466
same,relative viability,[2]; first compound 0.02 µM,0.297
same,relative viability,[3]; first compound 0.0002 µM,0.93
same,relative viability,[3]; first compound 0.000632 µM,0.442
same,relative viability,[3]; first compound 0.002 µM,0.41
same,relative viability,[3]; first compound 0.006325 µM,0.295
same,relative viability,[3]; first compound 0.02 µM,0.158
same,relative viability,[4]; first compound 0.0002 µM,0.705
same,relative viability,[4]; first compound 0.000632 µM,0.367
same,relative viability,[4]; first compound 0.002 µM,0.158
same,relative viability,[4]; first compound 0.006325 µM,0.133
same,relative viability,[4]; first compound 0.02 µM,0.0956
same,relative viability,[5]; first compound 0.000632 µM,0.209
same,relative viability,[5]; first compound 0.002 µM,0.191
same,relative viability,[5]; first compound 0.006325 µM,0.122
same,relative viability,[5]; first compound 0.02 µM,0.13
same,relative viability,[6]; first compound 0.0002 µM,0.666
same,relative viability,[6]; first compound 0.000632 µM,0.381
same,relative viability,[6]; first compound 0.002 µM,0.25
same,relative viability,[6]; first compound 0.006325 µM,0.25
same,relative viability,[6]; first compound 0.02 µM,0.182
same,relative viability,[7]; first compound 0.0002 µM,0.323
same,relative viability,[7]; first compound 0.000632 µM,0.382
same,relative viability,[7]; first compound 0.002 µM,0.36
same,relative viability,[7]; first compound 0.006325 µM,0.384
same,relative viability,[7]; first compound 0.02 µM,0.344
same,relative viability,[8]; first compound 0.0002 µM,0.851
same,relative viability,[8]; first compound 0.000632 µM,0.78
same,relative viability,[8]; first compound 0.002 µM,0.426
same,relative viability,[8]; first compound 0.006325 µM,0.209
same,relative viability,[8]; first compound 0.02 µM,0.118
same,relative viability,[9]; first compound 0.0002 µM,0.24
same,relative viability,[9]; first compound 0.000632 µM,0.189
same,relative viability,[9]; first compound 0.002 µM,0.256
same,relative viability,[9]; first compound 0.02 µM,0.199
same,relative viability,[10]; first compound 0.0002 µM,0.564
same,relative viability,[10]; first compound 0.000632 µM,0.506
same,relative viability,[10]; first compound 0.002 µM,0.496
same,relative viability,[10]; first compound 0.006325 µM,0.418
same,relative viability,[10]; first compound 0.02 µM,0.31
same,relative viability,[11]; first compound 0.0002 µM,0.743
same,relative viability,[11]; first compound 0.000632 µM,0.779
same,relative viability,[11]; first compound 0.002 µM,0.664
same,relative viability,[11]; first compound 0.006325 µM,0.481
same,relative viability,[11]; first compound 0.02 µM,0.322
